Data: US10065990B2, “Cyclic peptide compound, and preparation method, pharmaceutical composition and use thereof” (HANGZHOU GUANYU BIO-MEDICAL CO., LTD, priority 2013, dated 2018)
Where two headings read alike, the source gives them in different places.

What was measured:
HDAC7 = target: T1, HDAC7 (Homo sapiens, UniProt Q8WUI4); experiment: HDAC biochemical activity measurement (fluorescent substrate deacetylation);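 also: fluorogenic deacetylation assay using acetyl-lysine substrate at 20 µM, enzyme and compound incubated 30 min at 37 °C, then developer added, fluorescence read at 360/460 nm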; details: HDAC7; 37° C. 30 minutes
T1 sequence (Q8WUI4 1-952): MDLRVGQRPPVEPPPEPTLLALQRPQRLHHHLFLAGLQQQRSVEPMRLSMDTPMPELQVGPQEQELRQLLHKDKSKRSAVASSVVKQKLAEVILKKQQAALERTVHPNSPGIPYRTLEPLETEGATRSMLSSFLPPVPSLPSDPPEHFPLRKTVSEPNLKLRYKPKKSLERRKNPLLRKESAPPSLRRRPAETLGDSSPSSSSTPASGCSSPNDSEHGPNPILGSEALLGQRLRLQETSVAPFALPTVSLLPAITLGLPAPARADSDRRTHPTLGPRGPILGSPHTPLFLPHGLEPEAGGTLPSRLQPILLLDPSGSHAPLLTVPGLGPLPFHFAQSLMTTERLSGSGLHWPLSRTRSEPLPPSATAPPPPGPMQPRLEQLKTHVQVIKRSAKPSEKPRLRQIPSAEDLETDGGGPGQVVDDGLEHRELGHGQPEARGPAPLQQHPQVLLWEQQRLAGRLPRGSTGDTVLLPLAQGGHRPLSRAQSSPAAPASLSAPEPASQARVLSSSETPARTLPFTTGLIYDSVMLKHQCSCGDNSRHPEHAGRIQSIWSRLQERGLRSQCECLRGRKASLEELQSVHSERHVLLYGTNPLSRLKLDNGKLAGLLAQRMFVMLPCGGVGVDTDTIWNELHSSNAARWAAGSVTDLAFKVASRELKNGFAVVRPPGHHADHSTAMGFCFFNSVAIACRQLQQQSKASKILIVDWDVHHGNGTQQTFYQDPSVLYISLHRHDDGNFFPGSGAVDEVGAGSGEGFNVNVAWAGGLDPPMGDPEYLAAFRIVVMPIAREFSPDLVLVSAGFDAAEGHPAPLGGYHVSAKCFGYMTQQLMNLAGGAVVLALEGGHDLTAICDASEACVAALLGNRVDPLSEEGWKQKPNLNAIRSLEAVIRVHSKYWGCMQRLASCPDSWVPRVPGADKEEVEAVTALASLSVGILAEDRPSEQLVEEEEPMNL

[1] = test system: H1975 (non-small cell lung adenocarcinoma); experiment: MTT cancer cell growth inhibition; type: cell-based; details: MTT, 72 hours incubation, H1975 cells, read-out: GI50 H1975
How it was run: (§1)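 Tumour cells in 10% FBS-supplemented DMEM or RPMI 1640 are plated at 1500 per well, dosed next day with compound (10^−5 through 10^−10 M, final) and kept 72 h. MTT is added for 4 h; dissolved formazan is measured at 570 nm and GI50 determined.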

[2] = test system: Huh-7 (human hepatoma cells); experiment: MTT cancer cell growth inhibition; type: cell-based; details: MTT, 72 hours incubation, Huh-7 cells, read-out: GI50 Huh-7
How it was run: as §1

[3] = test system: BGC-823 (human gastric cancer cells); experiment: MTT cancer cell growth inhibition; type: cell-based; details: MTT, 72 hours incubation, read-out: GI50 BG
How it was run: as §1

[4] = test system: Bel-7402 (human hepatoma cells); experiment: MTT cancer cell growth inhibition; type: cell-based; details: MTT, 72 hours incubation, Bel-7402 cells, read-out: GI50 Bel-7402
How it was run: as §1

[5] = test system: HT1080 (human fibrosarcoma cells); experiment: MTT cancer cell growth inhibition; type: cell-based; details: MTT, 72 hours incubation, read-out: GI50 HT1
How it was run: as §1

[6] = test system: MCF-7 (human breast cancer cells); experiment: MTT cancer cell growth inhibition; type: cell-based; details: 72 hours incubation, read-out: GI50 MCF
How it was run: as §1

[7] = test system: MDA-MB-231 (breast cancer cells); experiment: MTT cancer cell growth inhibition; type: cell-based
How it was run: as §1

[8] = test system: KBM-5 (human chronic myelogenous leukemia); experiment: MTT cancer cell growth inhibition; type: cell-based; details: MTT, 72 hours incubation, KBM-5 cells, read-out: GI50 KBM-5
How it was run: as §1

[9] = test system: Hela (human cervical cancer cells); experiment: MTT cancer cell growth inhibition; type: cell-based; details: MTT, 72 hours incubation, read-out: GI50 Hela
How it was run: as §1

[10] = test system: DU145 (human prostate cancer cells); experiment: MTT cancer cell growth inhibition; type: cell-based; details: MTT, 72 hours incubation, read-out: GI50 Du1
How it was run: as §1

[11] = test system: N-87 (human gastric cancer cells); experiment: MTT cancer cell growth inhibition; type: cell-based; details: MTT, 72 hours incubation, N-87 cells, read-out: GI50 N-87
How it was run: as §1

[12] = test system: U937 (human leukemia cells); experiment: MTT cancer cell growth inhibition; type: cell-based; details: MTT, 72 hours incubation, read-out: GI50 U93
How it was run: as §1

[13] = test system: KBM5-T315I (human chronic myelogenous leukemia); experiment: MTT cancer cell growth inhibition; type: cell-based; details: MTT, 72 hours incubation, KBM5-T315I cells, read-out: GI50 KBM5-T315I
How it was run: as §1

[14] = test system: MOLT-4 (human acute lymphoblastic leukemia cells); experiment: MTT cancer cell growth inhibition; type: cell-based; details: MTT, 72 hours incubation, read-out: GI50 Mol
How it was run: as §1

[15] = test system: PANC-1 (Pac-1, human pancreatic cancer cells); experiment: MTT cancer cell growth inhibition; type: cell-based; details: MTT, 72 hours incubation, read-out: GI50 PAN
How it was run: as §1

[16] = test system: A549 (human lung cancer cells); experiment: MTT cancer cell growth inhibition; type: cell-based; details: MTT, 72 hours incubation, read-out: GI50 A54
How it was run: as §1

[17] = test system: lncap (prostate cancer cells); experiment: MTT cancer cell growth inhibition; type: cell-based; details: MTT, 72 hours incubation, read-out: GI50 lnca
How it was run: as §1

[18] = test system: K562 (human leukemia cells); experiment: MTT cancer cell growth inhibition; type: cell-based; details: MTT, 72 hours incubation, K562 cells, read-out: GI50 K562
How it was run: as §1

[19] = test system: SGC-7901 (human gastric cancer cells); experiment: MTT cancer cell growth inhibition; type: cell-based; details: MTT, 72 hours incubation, SGC-7901 cells, read-out: GI50 SGC-7901
How it was run: as §1

[20] = test system: HCC827 (human non-small cell lung cancer cells); experiment: MTT cancer cell growth inhibition; type: cell-based; details: MTT, 72 hours incubation, HCC827 cells, read-out: GI50 HCC827
How it was run: as §1

[21] = Homo sapiens, MDA-MB-231, 72 h, read-out: GI50 MDA-MB-231, MTT, 72 hours incubation, MDA-MB-231 cells

| IC50 HDAC7 (HDAC7) | GI50 ([1]; Homo sapiens, NCI-H1975, 72 h) [nM] | GI50 ([2]; Homo sapiens, Huh-7, 72 h) [nM] | GI50 ([4]; Homo sapiens, Bel-7402, 72 h) [nM] | GI50 [7, 21] [nM] | GI50 ([8]; Homo sapiens, KBM5, 72 h) [nM] | GI50 ([11]; Homo sapiens, 72 h) [nM] | GI50 ([13]; Homo sapiens, 72 h) [nM] | GI50 ([18]; Homo sapiens, K562, 72 h) [nM] | GI50 ([19]; Homo sapiens, SGC-7901, 72 h) [nM] | GI50 ([20]; Homo sapiens, HCC827, 72 h) [nM] | GI50 ([3]; Homo sapiens, BGC-823, 72 h) [nM] | GI50 ([5]; Homo sapiens, HT-1080, 72 h) [nM] | GI50 ([6]; Homo sapiens, MCF7, 72 h) [nM] | GI50 ([9]; Homo sapiens, HeLa, 72 h) [nM] | GI50 ([10]; Homo sapiens, DU-145, 72 h) [nM] | GI50 ([12]; Homo sapiens, U-937, 72 h) [nM] | GI50 ([14]; Homo sapiens, MOLT-4, 72 h) [nM] | GI50 ([15]; Homo sapiens, PANC-1, 72 h) [nM] | GI50 ([16]; Homo sapiens, A549, 72 h) [nM] | Structure (SMILES) | also measured |
| --- | --- | --- | --- | --- | --- | --- | --- | --- | --- | --- | --- | --- | --- | --- | --- | --- | --- | --- | --- | --- | --- |
| no activity | 58 | 31 | 76 | 41 | 38 | 29 | 26 | 15 | 31 | 32 |  |  |  |  |  |  |  |  |  | C/C=C1\NC(=O)c2cc(SC)cc(n2)CNC(=O)C[C@@H](/C=C/CCSC(C)=O)OC(=O)[C@H](Cc2ccc(O)cc2)NC1=O [Compound 202] | GI50 ([3]; Homo sapiens, BGC-823, 72 h, BGC-823 cells): 40 nM; GI50 ([5]; Homo sapiens, HT-1080, 72 h, HT1080 cells): 30 nM; GI50 ([6]; Homo sapiens, MCF7, 72 h, MCF-7 cells): 30 nM; GI50 ([9]; Homo sapiens, HeLa, 72 h, Hela cells): 20 nM; GI50 ([10]; Homo sapiens, DU-145, 72 h, DU145 cells): 70 nM; GI50 ([12]; Homo sapiens, U-937, 72 h, U937 cells): 20 nM; GI50 ([14]; Homo sapiens, MOLT-4, 72 h, MOLT-4 cells): 50 nM; GI50 ([15]; Homo sapiens, PANC-1, 72 h, PANC-1 cells): 30 nM; GI50 ([16]; Homo sapiens, A549, 72 h, A549 cells): 50 nM; GI50 ([17]; Homo sapiens, LNCaP, 72 h, lncap cells): 20 nM |
| no activity | 53 | 37 | 93 | 37 | 38 | 16 | 29 | 43 | 53 | 93 | 10 | 90 | 20 | 30 | 40 | 50 | 30 | 90 | 50 | C/C=C1\NC(=O)c2ccc(F)c(n2)CNC(=O)C[C@@H](/C=C/CCSC(C)=O)OC(=O)[C@H](Cc2ccc(O)cc2)NC1=O [Compound 83] | GI50 ([17]; Homo sapiens, LNCaP, 72 h): 30 nM |
| no activity | 54 | 92 | 29 | 63 | 31 | 41 | 61 | 38 | 27 | 35 | 170 | 70 | 80 | 40 | 50 | 50 | 50 | 130 | 30 | C=C1NC(=O)c2ccc(F)c(n2)CNC(=O)C[C@@H](/C=C/CCS)OC(=O)[C@H](C(C)C)NC1=O [Compound 134] | GI50 ([17]; Homo sapiens, LNCaP, 72 h): 100 nM |
| no activity |  |  |  |  |  |  |  |  |  |  |  |  |  |  |  |  |  |  |  | C/C=C1\NC(=O)c2ccc(SC)c(n2)CNC(=O)C[C@@H](/C=C/CCSC(C)=O)OC(=O)[C@H](C(C)C)NC1=O [Compound 209] | GI50 [1]: 17 nM; GI50 [2]: 23 nM; GI50 ([3]; BGC-823 cells): 40 nM; GI50 [4]: 13 nM; GI50 ([5]; HT1080 cells): 30 nM; GI50 ([6]; MCF-7 cells): 20 nM; GI50 ([7]; read-out: GI50 MDA-MB-231, MTT, 72 hours incubation, MDA-MB-231 cells): 35 nM; GI50 [8]: 46 nM; GI50 ([9]; Hela cells): 90 nM; GI50 ([10]; DU145 cells): 70 nM; GI50 [11]: 51 nM; GI50 ([12]; U937 cells): 30 nM; GI50 [13]: 31 nM; GI50 ([14]; MOLT-4 cells): 70 nM; GI50 ([15]; PANC-1 cells): 20 nM; GI50 ([16]; A549 cells): 20 nM; GI50 ([17]; lncap cells): 20 nM; GI50 [18]: 39 nM; GI50 [19]: 41 nM; GI50 [20]: 85 nM |
| no activity | 61 | 39 | 49 | 39 | 53 | 27 | 25 | 26 | 15 | 49 | 20 | 40 | 20 | 50 | 20 | 60 | 30 | 40 | 10 | C=C1NC(=O)c2cc(F)cc(n2)CNC(=O)C[C@@H](/C=C/CCSC(C)=O)OC(=O)[C@H](C(C)C)NC1=O [Compound 85] | GI50 ([17]; Homo sapiens, LNCaP, 72 h): 30 nM |
